In the OligoGym collection:
HELM strings list units from the 5' end as sugar, base in round brackets, then linkage (d deoxyribose, r ribose, m 2'-O-methyl, p phosphodiester). Strings are as the collection lists them; they lack the last nucleoside at the 3' end of the tested compound. [moe] = 2'-O-(2-methoxyethyl) (MOE); [sp] = phosphorothioate linkage; [m5C] = 5-methylcytosine

Target: ATXN3
Assay: mouse, dose not given
Conditions: ASO

Substance	3 h FOB score [score 0-7]
RNA1{[moe](A)[sp].[moe](G)p.[moe]([m5C])p.[moe]([m5C])p.[moe](A)p.d(A)[sp].d(T)[sp].d(A)[sp].d(T)[sp].d(T)[sp].d(T)[sp].d(A)[sp].d(T)[sp].d(A)[sp].d(G)[sp].[moe](G)p.[moe](T)p.[moe](G)[sp].[moe]([m5C])}$$$$ (last 3' nucleoside missing)	1
RNA1{[moe](T)[sp].[moe](A)p.[moe](A)p.[moe](T)p.[moe](A)[sp].d([m5C])[sp].d(U)[sp].d(T)[sp].d(T)[sp].d(T)[sp].d(T)[sp].d([m5C])[sp].d([m5C])[sp].d(A)[sp].d(G)[sp].[moe]([m5C])p.[moe]([m5C])p.[moe](T)[sp].[moe](T)}$$$$ (last 3' nucleoside missing)	1
RNA1{[moe](A)[sp].[moe](A)p.[moe](T)p.[moe](G)p.[moe]([m5C])p.d(A)[sp].d(T)[sp].d(A)[sp].d(T)[sp].d(T)[sp].d(G)[sp].d(G)[sp].d(T)[sp].d(T)[sp].d(T)[sp].[moe](T)p.[moe]([m5C])p.[moe](T)[sp].[moe]([m5C])}$$$$ (last 3' nucleoside missing)	4
RNA1{[moe](A)[sp].[moe](G)p.[moe]([m5C])p.[moe]([m5C])p.[moe](A)[sp].d(A)[sp].d(T)[sp].d(A)[sp].d(T)[sp].d(T)[sp].d(T)[sp].d(A)[sp].d(T)[sp].d(A)[sp].d(G)[sp].[moe](G)p.[moe](T)p.[moe](G)[sp].[moe]([m5C])}$$$$ (last 3' nucleoside missing)	1
RNA1{[moe](G)[sp].[moe]([m5C])p.[moe]([m5C])p.[moe](A)p.[moe](A)p.d(T)[sp].d(A)[sp].d(T)[sp].d(T)[sp].d(T)[sp].d(A)[sp].d(T)[sp].d(A)[sp].d(G)[sp].d(G)[sp].[moe](T)p.[moe](G)p.[moe]([m5C])[sp].[moe](T)}$$$$ (last 3' nucleoside missing)	1.5
RNA1{[moe](A)[sp].[moe](T)p.[moe](G)p.[moe](T)p.[moe](T)[sp].d([m5C])[sp].d(A)[sp].d(T)[sp].d(A)[sp].d(T)[sp].d([m5C])[sp].d([m5C])[sp].d(T)[sp].d(T)[sp].d(T)[sp].[moe](A)p.[moe](A)p.[moe]([m5C])[sp].[moe]([m5C])}$$$$ (last 3' nucleoside missing)	0
RNA1{[moe](G)[sp].[moe]([m5C])p.[moe](A)[sp].[moe]([m5C])[sp].[moe]([m5C])[sp].d(A)[sp].d(T)[sp].d(A)[sp].d(T)[sp].d(A)[sp].d(T)[sp].d(A)[sp].d(T)[sp].d([m5C])[sp].d(T)[sp].[moe]([m5C])[sp].[moe](A)p.[moe](G)[sp].[moe](A)}$$$$ (last 3' nucleoside missing)	0
RNA1{[moe]([m5C])[sp].[moe](T)p.[moe](G)p.[moe](G)p.[moe](T)[sp].d([m5C])[sp].d(A)[sp].d(G)[sp].d(T)[sp].d(T)[sp].d(T)[sp].d([m5C])[sp].d([m5C])[sp].d(T)[sp].d(A)[sp].[moe](A)p.[moe](T)p.[moe](T)[sp].[moe](T)}$$$$ (last 3' nucleoside missing)	0
RNA1{[moe](G)[sp].[moe](G)p.[moe](T)p.[moe](T)p.[moe](T)[sp].d(T)[sp].d([m5C])[sp].d(T)[sp].d([m5C])[sp].d(A)[sp].d(T)[sp].d(T)[sp].d(T)[sp].d(T)[sp].d(T)[sp].[moe](A)p.[moe](T)p.[moe](A)[sp].[moe](T)}$$$$ (last 3' nucleoside missing)	2.25
RNA1{[moe](T)[sp].[moe](G)p.[moe]([m5C])p.[moe](T)p.[moe]([m5C])p.d(A)[sp].d(T)[sp].d(T)[sp].d(T)[sp].d(A)[sp].d(T)[sp].d(T)[sp].d([m5C])[sp].d(T)[sp].d([m5C])[sp].[moe](A)p.[moe](A)p.[moe](G)[sp].[moe](T)}$$$$ (last 3' nucleoside missing)	1
RNA1{[moe](A)[sp].[moe](T)p.[moe](G)p.[moe](A)p.[moe](G)[sp].d([m5C])[sp].d([m5C])[sp].d(A)[sp].d(A)[sp].d(T)[sp].d(A)[sp].d(T)[sp].d(T)[sp].d(T)[sp].d(A)[sp].[moe](T)p.[moe](A)p.[moe](G)[sp].[moe](G)}$$$$ (last 3' nucleoside missing)	1
RNA1{[moe](T)[sp].[moe](G)p.[moe]([m5C])p.[moe](A)p.[moe]([m5C])[sp].d(A)[sp].d([m5C])[sp].d(T)[sp].d(T)[sp].d(T)[sp].d([m5C])[sp].d([m5C])[sp].d(T)[sp].d([m5C])[sp].d([m5C])[sp].[moe](T)p.[moe]([m5C])p.[moe](A)[sp].[moe](A)}$$$$ (last 3' nucleoside missing)	0.5
RNA1{[moe](A)[sp].[moe]([m5C])p.[moe](T)p.[moe](A)p.[moe]([m5C])[sp].d([m5C])[sp].d(T)[sp].d(T)[sp].d(G)[sp].d([m5C])[sp].d(A)[sp].d(T)[sp].d(A)[sp].d([m5C])[sp].d(T)[sp].[moe](T)p.[moe](A)p.[moe](G)[sp].[moe]([m5C])}$$$$ (last 3' nucleoside missing)	1.12
RNA1{[moe](G)[sp].[moe]([m5C])[sp].[moe](A)p.[moe]([m5C])p.[moe]([m5C])[sp].d(A)[sp].d(T)[sp].d(A)[sp].d(T)[sp].d(A)[sp].d(T)[sp].d(A)[sp].d(T)[sp].d([m5C])[sp].d(T)[sp].[moe]([m5C])p.[moe](A)p.[moe](G)[sp].[moe](A)}$$$$ (last 3' nucleoside missing)	1
RNA1{[moe](T)[sp].[moe](G)p.[moe](T)p.[moe](T)p.[moe](A)p.d(A)[sp].d(T)[sp].d(A)[sp].d([m5C])[sp].d(T)[sp].d(T)[sp].d(T)[sp].d(T)[sp].d(T)[sp].d([m5C])[sp].[moe]([m5C])p.[moe](A)p.[moe](G)[sp].[moe]([m5C])}$$$$ (last 3' nucleoside missing)	1
RNA1{[moe](T)[sp].[moe](G)[sp].[moe](G)p.[moe]([m5C])p.[moe](A)[sp].d([m5C])[sp].d(A)[sp].d(T)[sp].d(T)[sp].d(T)[sp].d(T)[sp].d(T)[sp].d(T)[sp].d(A)[sp].d(T)[sp].[moe](A)p.[moe](G)p.[moe](A)[sp].[moe](G)}$$$$ (last 3' nucleoside missing)	3.25
RNA1{[moe](G)[sp].[moe]([m5C])p.[moe](A)p.[moe]([m5C])p.[moe]([m5C])p.[moe](A)p.d(T)[sp].d(A)[sp].d(T)[sp].d(A)[sp].d(T)[sp].d(A)[sp].d(T)[sp].d([m5C])[sp].d(T)[sp].d([m5C])[sp].[moe](A)p.[moe](G)[sp].[moe](A)}$$$$ (last 3' nucleoside missing)	0.25
RNA1{[moe](T)[sp].[moe]([m5C])p.[moe](A)[sp].[moe]([m5C])[sp].[moe](A)[sp].d(A)[sp].d(T)[sp].d(G)[sp].d(A)[sp].d([m5C])[sp].d([m5C])[sp].d([m5C])[sp].d(T)[sp].d(T)[sp].d(T)[sp].[moe](T)[sp].[moe]([m5C])p.[moe](T)[sp].[moe](T)}$$$$ (last 3' nucleoside missing)	1.25
RNA1{[moe](G)[sp].[moe]([m5C])p.[moe](T)p.[moe](A)p.[moe](T)[sp].d(A)[sp].d(A)[sp].d(T)[sp].d(T)[sp].d([m5C])[sp].d(T)[sp].d(T)[sp].d(G)[sp].d([m5C])[sp].d(T)[sp].[moe](T)p.[moe]([m5C])p.[moe](A)[sp].[moe](A)}$$$$ (last 3' nucleoside missing)	1.75
RNA1{[moe](A)[sp].[moe](T)p.[moe]([m5C])p.[moe](A)p.[moe]([m5C])[sp].d(T)[sp].d(G)[sp].d([m5C])[sp].d(A)[sp].d([m5C])[sp].d(A)[sp].d([m5C])[sp].d(T)[sp].d(T)[sp].d(T)[sp].[moe]([m5C])p.[moe]([m5C])p.[moe](T)[sp].[moe]([m5C])}$$$$ (last 3' nucleoside missing)	0
RNA1{[moe](T)[sp].[moe](G)p.[moe](G)p.[moe]([m5C])p.[moe](A)p.d([m5C])[sp].d(A)[sp].d(T)[sp].d(T)[sp].d(T)[sp].d(T)[sp].d(T)[sp].d(T)[sp].d(A)[sp].d(T)[sp].[moe](A)p.[moe](G)p.[moe](A)[sp].[moe](G)}$$$$ (last 3' nucleoside missing)	2.5
RNA1{[moe]([m5C])[sp].[moe](A)p.[moe](G)p.[moe]([m5C])p.[moe](A)p.[moe]([m5C])p.d([m5C])[sp].d(A)[sp].d(T)[sp].d(A)[sp].d(T)[sp].d(A)[sp].d(T)[sp].d(A)[sp].d(T)[sp].d([m5C])[sp].[moe](T)p.[moe]([m5C])[sp].[moe](A)}$$$$ (last 3' nucleoside missing)	0.625
RNA1{[moe](T)[sp].[moe](G)p.[moe](T)p.[moe](A)p.[moe]([m5C])[sp].d(A)[sp].d([m5C])[sp].d(T)[sp].d(T)[sp].d(T)[sp].d(T)[sp].d(A)[sp].d([m5C])[sp].d(A)[sp].d(T)[sp].[moe](T)p.[moe]([m5C])p.[moe]([m5C])[sp].[moe]([m5C])}$$$$ (last 3' nucleoside missing)	1
RNA1{[moe](G)[sp].[moe](T)p.[moe](T)p.[moe]([m5C])p.[moe]([m5C])p.d(A)[sp].d(G)[sp].d(A)[sp].d(T)[sp].d([m5C])[sp].d(A)[sp].d([m5C])[sp].d([m5C])[sp].d(A)[sp].d(T)[sp].[moe]([m5C])p.[moe](T)p.[moe](T)[sp].[moe](T)}$$$$ (last 3' nucleoside missing)	3.5
RNA1{[moe](T)[sp].[moe](A)p.[moe](A)p.[moe](T)p.[moe](T)[sp].d([m5C])[sp].d(T)[sp].d(T)[sp].d(G)[sp].d([m5C])[sp].d(T)[sp].d(T)[sp].d([m5C])[sp].d(A)[sp].d(A)[sp].[moe]([m5C])p.[moe]([m5C])p.[moe](A)[sp].[moe](T)}$$$$ (last 3' nucleoside missing)	1.38
RNA1{[moe](G)[sp].[moe]([m5C])p.[moe](T)p.[moe]([m5C])p.[moe](A)p.d(T)[sp].d(T)[sp].d(T)[sp].d(A)[sp].d(T)[sp].d(T)[sp].d([m5C])[sp].d(T)[sp].d([m5C])[sp].d(A)[sp].[moe](A)p.[moe](G)p.[moe](T)[sp].[moe](A)}$$$$ (last 3' nucleoside missing)	1
